Reference: the NIST ThermoML archive (doi:10.1016/j.jct.2019.05.017)
± gives the expanded uncertainty stated by the source.

Columns and labels:
[1] = 101.3 kPa, Liquid, Vibrating tube method
[2] = wn = mass fraction of the nth substance listed; settings: 101.3 kPa, Liquid, Vibrating tube method

Compound | mass density ([1]; 303.15 K) | mass density ([1]; 313.15 K) | mass density ([1]; 293.15 K) | mass density ([1]; 298.15 K) | mass density ([1]; 308.15 K) | mass density ([1]; 318.15 K) | mass density ([1]; 323.15 K) | mass density ([1]; 328.15 K) | mass density ([1]; 333.15 K) | other results
NCCO [2-aminoethan-1-ol] | 1008.8 ± 2 kg/m3 | 1000.9 ± 2 kg/m3 | – | – | – | – | – | – | – | –
CCOCCO [2-ethoxyethan-1-ol] | 920.7 ± 2 kg/m3 | 911.5 ± 2 kg/m3 | 929.7 ± 2 kg/m3 | 925.2 ± 2 kg/m3 | 916.1 ± 2 kg/m3 | 906.8 ± 2 kg/m3 | 902.1 ± 2 kg/m3 | 897.4 ± 2 kg/m3 | 892.6 ± 2 kg/m3 | –
CCOCCO [2-ethoxyethan-1-ol] + NCCO | – | – | – | – | – | – | – | – | – | mass density ([2]; 293.15 K, w2 = 0.318): 960.2 ± 2 kg/m3; mass density ([2]; 298.15 K, w2 = 0.318): 956 ± 2 kg/m3; mass density ([2]; 303.15 K, w2 = 0.318): 951.7 ± 2 kg/m3; mass density ([2]; 308.15 K, w2 = 0.318): 947.4 ± 2 kg/m3; mass density ([2]; 313.15 K, w2 = 0.318): 943 ± 2 kg/m3; mass density ([2]; 318.15 K, w2 = 0.318): 938.7 ± 2 kg/m3; mass density ([2]; 323.15 K, w2 = 0.318): 934.3 ± 2 kg/m3; mass density ([2]; 328.15 K, w2 = 0.318): 929.8 ± 2 kg/m3; mass density ([2]; 333.15 K, w2 = 0.318): 925.4 ± 2 kg/m3
COCCO [2-methoxyethan-1-ol] | 955.5 ± 2 kg/m3 | 946.2 ± 2 kg/m3 | 964.7 ± 2 kg/m3 | 960.1 ± 2 kg/m3 | 950.9 ± 2 kg/m3 | 941.5 ± 2 kg/m3 | 936.7 ± 2 kg/m3 | 932 ± 2 kg/m3 | 927.2 ± 2 kg/m3 | mass density ([1]; 283.15 K): 974.7 ± 2 kg/m3; mass density ([1]; 288.15 K): 969.9 ± 2 kg/m3
COCCO [2-methoxyethan-1-ol] + NCCO | – | – | – | – | – | – | – | – | – | mass density ([2]; 293.15 K, w2 = 0.31): 985.5 ± 2 kg/m3; mass density ([2]; 298.15 K, w2 = 0.31): 981.1 ± 2 kg/m3; mass density ([2]; 303.15 K, w2 = 0.31): 976.8 ± 2 kg/m3; mass density ([2]; 308.15 K, w2 = 0.31): 972.5 ± 2 kg/m3; mass density ([2]; 313.15 K, w2 = 0.31): 968.1 ± 2 kg/m3; mass density ([2]; 318.15 K, w2 = 0.31): 963.7 ± 2 kg/m3; mass density ([2]; 323.15 K, w2 = 0.31): 959.2 ± 2 kg/m3; mass density ([2]; 328.15 K, w2 = 0.31): 954.8 ± 2 kg/m3; mass density ([2]; 333.15 K, w2 = 0.31): 950.3 ± 2 kg/m3
